Results published in US20090291919A1, “Compositions and Methods for Treating or Preventing Ophthalmic Light Toxicity” (University of Florida Research Foundation, Inc., priority 2006, published 2009).
Entries after “also recorded” stand apart in the source; their conditions may differ.

Columns and labels:
[1] = system: purified wt (wild-type) opsin; assay: Pigment formation of compound alone with opsin (500 nm absorbing pigment); conditions: compound added to opsin without 11-cis-retinal
Protocol: (§1) To test whether this compound associates with wild-type (WT) opsin to form pigment, it was added to opsin solution in vitro.

purified WT opsin = assay: Opsin regeneration: pigment (rhodopsin) formation with 11-cis-retinal in presence of compound; conditions: for inhibition of pigment formation of opsin with 11-cis-retinal / of binding of 11-cis-retinal to opsin: in vitro, result in words
Protocol: In a typical competition assay of the invention, a compound is sought that will tie up the retinal binding pocket of the opsin protein. Thus, the assay seeks to identify a non-retinoid compound (one that will not be tightly regulated by the retina as to amount entering rod cells) that competes with 11-cis-retinal. Over time this will slow the rate of formation of rhodopsin relative to the rate when 11-cis-retinal alone is present. In one embodiment, the assay is conducted in the presence of 11-cis-retinal, and the rate of formation of rhodopsin is measured as a way of determining competition for the retinal binding pocket, for example, by determining the rate of increase in the 500 nm peak characteristic for rhodopsin. No antibodies for rhodopsin are required for this assay.

[2] = Absorption of the compound by itself in the visible spectrum
Protocol: as §1

| SMILES | formation of a 500 nm absorbing pigment with opsin [1] | inhibition of pigment formation of opsin with 11-cis-retinal / of binding of 11-cis-retinal to opsin (purified WT opsin) | extent of inhibition of regeneration compared with β-ionone (purified WT opsin; SN10011 2 and 5 mM vs β-ionone) | inhibition of pigment formation of opsin with 11-cis-retinal / of binding of 11-cis-retinal to opsin (purified WT opsin; listed as SN 10011) | absorption in the visible spectrum [2] |
| --- | --- | --- | --- | --- | --- |
| CC(=O)/C=C/C1=C(C)CCCC1(C)C [β-ionone, reference compound] | does not form a light absorbing pigment; also recorded: does not itself form a 500 nm absorbing pigment; also recorded: no 500 nm absorbing pigment was formed | inhibit binding of retinal to the site; also recorded: inhibited opsin regeneration in a dose dependent manner |  |  |  |
| CC(=O)c1c(C)n[nH]c1C [SN10011, 1-(3,5-dimethyl-1H-pyrazol-4-yl)ethanone] | No pigment was formed; also recorded: no 500 nm absorbing pigment was generated | reversibly inhibits binding of 11-cis-retinal; also recorded: significant effect on inhibition of pigment formation; also recorded: inhibited | much lower | inhibits the binding of 11-cis-retinal to opsin in vitro | did not show any absorption in the visible spectrum; also recorded: does not absorb in the visible spectrum |
